What all share (assay): KDAC inhibition assay, Caliper EZ Reader II
Holding throughout (type): biochemical
Conditions in all cases: % inhibition at 30 μM

In test [1] the target is T1, recombinant human KDAC1 (Homo sapiens, UniProt Q13547).
T1 construct: purchased BPS Bioscience

In test [2] the target is T2, recombinant human KDAC3 (Homo sapiens, UniProt O15379).
T2 construct: purchased BPS Bioscience

The target in test [3] is T3, recombinant human KDAC6 (Homo sapiens, UniProt Q9UBN7).
T3 construct: purchased BPS Bioscience
T3 sequence (Q9UBN7 1-1215): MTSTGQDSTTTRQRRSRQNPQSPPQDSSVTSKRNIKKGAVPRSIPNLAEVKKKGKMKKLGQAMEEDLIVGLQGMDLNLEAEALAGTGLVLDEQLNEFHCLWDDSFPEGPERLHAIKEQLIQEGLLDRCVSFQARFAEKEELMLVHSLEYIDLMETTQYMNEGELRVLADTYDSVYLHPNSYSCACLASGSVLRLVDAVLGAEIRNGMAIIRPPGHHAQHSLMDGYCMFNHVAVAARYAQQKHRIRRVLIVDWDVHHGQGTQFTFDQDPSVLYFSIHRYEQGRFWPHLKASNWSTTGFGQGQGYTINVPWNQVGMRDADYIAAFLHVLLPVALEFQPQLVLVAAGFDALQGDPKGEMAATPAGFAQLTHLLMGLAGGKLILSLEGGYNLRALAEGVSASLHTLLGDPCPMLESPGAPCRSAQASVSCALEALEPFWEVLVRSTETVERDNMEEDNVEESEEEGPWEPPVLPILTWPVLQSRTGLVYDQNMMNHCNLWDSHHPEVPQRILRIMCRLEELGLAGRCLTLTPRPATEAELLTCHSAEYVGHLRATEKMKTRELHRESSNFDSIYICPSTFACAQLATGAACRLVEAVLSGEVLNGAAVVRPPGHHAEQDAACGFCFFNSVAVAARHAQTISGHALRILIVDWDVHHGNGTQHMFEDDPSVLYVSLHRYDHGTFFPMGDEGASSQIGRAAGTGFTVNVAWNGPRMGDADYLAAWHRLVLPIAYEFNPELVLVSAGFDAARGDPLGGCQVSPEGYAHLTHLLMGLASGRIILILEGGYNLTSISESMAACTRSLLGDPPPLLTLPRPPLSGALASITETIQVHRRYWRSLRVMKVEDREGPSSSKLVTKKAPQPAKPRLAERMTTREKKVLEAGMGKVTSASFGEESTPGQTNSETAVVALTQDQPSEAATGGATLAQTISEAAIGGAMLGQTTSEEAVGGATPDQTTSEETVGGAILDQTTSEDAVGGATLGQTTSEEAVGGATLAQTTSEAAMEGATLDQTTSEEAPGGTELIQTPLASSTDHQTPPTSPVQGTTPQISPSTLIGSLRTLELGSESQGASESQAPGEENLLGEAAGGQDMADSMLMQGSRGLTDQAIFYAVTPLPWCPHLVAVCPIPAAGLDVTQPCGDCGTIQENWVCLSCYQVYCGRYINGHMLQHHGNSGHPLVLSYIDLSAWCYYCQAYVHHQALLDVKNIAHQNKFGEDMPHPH

Test [4] addresses T4, recombinant human KDAC8 (Homo sapiens, UniProt Q9BY41).
T4 construct: purchased BPS Bioscience
T4 sequence (Q9BY41 1-377): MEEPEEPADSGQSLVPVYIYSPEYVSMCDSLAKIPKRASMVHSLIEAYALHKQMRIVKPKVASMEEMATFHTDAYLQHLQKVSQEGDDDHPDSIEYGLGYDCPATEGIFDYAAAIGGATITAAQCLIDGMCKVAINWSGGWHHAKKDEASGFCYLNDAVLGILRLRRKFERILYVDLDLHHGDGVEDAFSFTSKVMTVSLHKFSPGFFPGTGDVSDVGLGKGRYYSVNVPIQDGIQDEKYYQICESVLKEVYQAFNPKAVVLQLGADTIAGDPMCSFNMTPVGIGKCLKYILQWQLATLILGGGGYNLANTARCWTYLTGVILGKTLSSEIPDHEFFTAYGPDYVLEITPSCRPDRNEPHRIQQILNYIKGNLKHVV

T1 sequence (Q13547 whole entry): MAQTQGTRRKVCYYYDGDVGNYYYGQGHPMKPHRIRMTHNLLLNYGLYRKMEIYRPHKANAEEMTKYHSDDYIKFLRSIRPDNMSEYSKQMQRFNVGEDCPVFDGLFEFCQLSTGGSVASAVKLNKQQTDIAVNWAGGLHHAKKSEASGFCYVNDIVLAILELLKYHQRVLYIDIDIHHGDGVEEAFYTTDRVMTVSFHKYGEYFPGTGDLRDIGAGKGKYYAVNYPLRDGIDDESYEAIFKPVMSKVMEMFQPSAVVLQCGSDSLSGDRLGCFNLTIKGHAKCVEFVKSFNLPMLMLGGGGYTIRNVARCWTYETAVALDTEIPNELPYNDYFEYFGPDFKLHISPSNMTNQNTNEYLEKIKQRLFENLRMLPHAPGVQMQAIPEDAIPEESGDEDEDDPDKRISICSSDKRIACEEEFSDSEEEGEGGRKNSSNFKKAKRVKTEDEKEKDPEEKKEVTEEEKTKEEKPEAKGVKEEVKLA
T2 sequence (O15379 whole entry): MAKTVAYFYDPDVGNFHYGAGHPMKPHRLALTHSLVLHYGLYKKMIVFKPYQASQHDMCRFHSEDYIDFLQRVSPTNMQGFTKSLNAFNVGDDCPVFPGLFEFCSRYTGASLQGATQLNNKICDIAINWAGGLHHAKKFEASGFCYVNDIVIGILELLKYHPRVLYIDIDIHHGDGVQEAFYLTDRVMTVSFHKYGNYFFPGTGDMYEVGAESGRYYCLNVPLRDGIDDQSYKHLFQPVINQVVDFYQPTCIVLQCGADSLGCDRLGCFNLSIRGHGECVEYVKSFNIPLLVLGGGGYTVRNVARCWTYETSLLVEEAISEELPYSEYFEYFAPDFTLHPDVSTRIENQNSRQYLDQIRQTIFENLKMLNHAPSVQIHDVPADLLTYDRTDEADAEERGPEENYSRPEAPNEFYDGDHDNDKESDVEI
T2 sequence (Q9Y618 395-489 partner limits assumed): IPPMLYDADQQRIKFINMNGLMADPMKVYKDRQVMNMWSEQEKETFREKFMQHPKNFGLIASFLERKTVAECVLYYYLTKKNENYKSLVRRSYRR

Take “Cyclo-^DAsp(^DPro-Pro-Val)-NHCH2CH2CH2SCH3 [Compound 7b]”: in test [1], the “KDAC Inhibition Activity KDAC1 (% inhibition)” value was found to be 1.5%. Also, the “KDAC Inhibition Activity KDAC3 (% inhibition)” value in test [2] was “Not active”. For the same substance, in test [3], the “KDAC Inhibition Activity KDAC6 (% inhibition)” value is “Not active”. The “KDAC Inhibition Activity KDAC8 (% inhibition)” value in test [4] came to 28%.

On to “Cyclo-Asp(^DPro-Pro-Val)-NHCH2CH2CH2COOMe [Compound 12a]”, for which the “KDAC Inhibition Activity KDAC1 (% inhibition)” value in test [1] is given as 54.6%. Moreover, in test [2], the “KDAC Inhibition Activity KDAC3 (% inhibition)” value came to 2%. For the same substance, the “KDAC Inhibition Activity KDAC6 (% inhibition)” value in test [3] was “Not active”. In addition, the “KDAC Inhibition Activity KDAC8 (% inhibition)” value in test [4] is “Not active”.

In the case of “Cyclo-Asp(Pro-^DPro-Val)-NHCH2CH2CH2COOMe [Compound 23a]”, in test [1], the “KDAC Inhibition Activity KDAC1 (% inhibition)” value is recorded as “Not active”. In addition, the “KDAC Inhibition Activity KDAC3 (% inhibition)” value in test [2] turned out to be 7%. Also, the “KDAC Inhibition Activity KDAC6 (% inhibition)” value in test [3] is listed as “Not active”. Moreover, the “KDAC Inhibition Activity KDAC8 (% inhibition)” value in test [4] was “Not active”.

“Cyclo-^DAsp(^DPro-Pro-Val)-NHCH2CH2S—SCH2CH2NHP(O)(OPh) [Compound 11b]”: the “KDAC Inhibition Activity KDAC1 (% inhibition)” value in test [1] is “Not active”. In test [2], the “KDAC Inhibition Activity KDAC3 (% inhibition)” value turned out to be 4%. Also, the “KDAC Inhibition Activity KDAC6 (% inhibition)” value in test [3] is reported as 16%. The “KDAC Inhibition Activity KDAC8 (% inhibition)” value in test [4] was determined as 10%.

Regarding “Cyclo-^DAsp(^DPro-Pro-Val)-OBn [Compound 1b]”, in test [1], the “KDAC Inhibition Activity KDAC1 (% inhibition)” value was determined as 7%. For the same substance, the “KDAC Inhibition Activity KDAC3 (% inhibition)” value in test [2] came to 10%. Further, in test [3], the “KDAC Inhibition Activity KDAC6 (% inhibition)” value is reported as 8%. In addition, the “KDAC Inhibition Activity KDAC8 (% inhibition)” value in test [4] amounted to 9%.

As to “Cyclo-Asp(Pro-^DPro-Val)-NHCH2CH2CH2S(═O)2CH3 [Compound 21a]”, the “KDAC Inhibition Activity KDAC1 (% inhibition)” value in test [1] was “Not active”. The “KDAC Inhibition Activity KDAC3 (% inhibition)” value in test [2] is given as “Not active”. Moreover, the “KDAC Inhibition Activity KDAC6 (% inhibition)” value in test [3] was “Not active”. Further, the “KDAC Inhibition Activity KDAC8 (% inhibition)” value in test [4] came to 23%.

Regarding “Cyclo-^DAsp(Pro-^DPro-Val)-NHCH2CH2CH2S(═O)2CH3 [Compound 21b]”, the “KDAC Inhibition Activity KDAC1 (% inhibition)” value in test [1] is “Not active”. In test [2], the “KDAC Inhibition Activity KDAC3 (% inhibition)” value is “Not active”. In test [3], the “KDAC Inhibition Activity KDAC6 (% inhibition)” value worked out at 12%. Further, the “KDAC Inhibition Activity KDAC8 (% inhibition)” value in test [4] amounted to 8%.

In the case of “Cyclo-^DAsp(Pro-^DPro-Val)-NHCH2CH2CH2SCH3 [Compound 19b]”, the “KDAC Inhibition Activity KDAC1 (% inhibition)” value in test [1] is 1%. Moreover, the “KDAC Inhibition Activity KDAC3 (% inhibition)” value in test [2] is “Not active”. In addition, in test [3], the “KDAC Inhibition Activity KDAC6 (% inhibition)” value was “Not active”. In addition, the “KDAC Inhibition Activity KDAC8 (% inhibition)” value in test [4] turned out to be 27%.

With “Cyclo-Asp(Pro-^DPro-Val)-NHCH2CH2CH2SCH3 [Compound 19a]”, in test [1], the “KDAC Inhibition Activity KDAC1 (% inhibition)” value came out at 2%. Moreover, the “KDAC Inhibition Activity KDAC3 (% inhibition)” value in test [2] is reported as “Not active”. The “KDAC Inhibition Activity KDAC6 (% inhibition)” value in test [3] is recorded as “Not active”. Moreover, the “KDAC Inhibition Activity KDAC8 (% inhibition)” value in test [4] was 25%.

Take “Cyclo-Asp(^DPro-Pro-Val)-NHCH2CH2S—SCH2CH2NHP(O)(OPh) [Compound 11a]”: in test [1], the “KDAC Inhibition Activity KDAC1 (% inhibition)” value is 2.5%. Further, the “KDAC Inhibition Activity KDAC3 (% inhibition)” value in test [2] turned out to be 10%. In addition, in test [3], the “KDAC Inhibition Activity KDAC6 (% inhibition)” value is recorded as “Not active”. In addition, the “KDAC Inhibition Activity KDAC8 (% inhibition)” value in test [4] amounted to 31%.

On to “Cyclo-Asp(^DPro-Pro-Val)-NHCH2CH2CH2S(═O)CH3 [Compound 8a]”, for which the “KDAC Inhibition Activity KDAC1 (% inhibition)” value in test [1] is “Not active”. In addition, in test [2], the “KDAC Inhibition Activity KDAC3 (% inhibition)” value was “Not active”. In addition, the “KDAC Inhibition Activity KDAC6 (% inhibition)” value in test [3] was “Not active”. In addition, the “KDAC Inhibition Activity KDAC8 (% inhibition)” value in test [4] is on record as 30%.

These data come from patent publication US10421778B2, “Isoform-selective lysine deacetylase inhibitors” (WASHINGTON UNIVERSITY, priority 2015, dated 2019).
